In EP0186440A2, “Method for producing benzoic acid derivatives” (Takeda Chemical Industries, Ltd., priority 1984, dated 1986):
Where two headings read alike, the source gives them in different places.

Columns and labels:
[1] = design: species or system male mice of Jcl:ICR strain; conditions: mouse, in vivo, po
Procedure: Five 5-week-old male mice of Jcl:ICR strain, weighing about 30 g each, were used. Compound A, C or E was suspended in a 5% solution of gum arabic and administered orally at the level of 0.2 ml per 10 grams body weight.

[2] = test system: synthetic leukotriene D4 (LTD4); assay: Bronchoconstriction in guinea pigs due to intravenous LTD4 (Konzett-Rössler method), compound given orally one hour before; format: in vivo, Guinea pigs of the Hartley strain; conditions: Cavia porcellus, 1 h; 50% inhibitory dose; oral, one hour before LTD4 (10 µg/kg i.v.); inhibition of overflowing volume at maximal response, 30 seconds after LTD4; read-out: ID50(p.o.)
Procedure: Guinea pigs of the Hartley strain, both male and female, with body weights of about 400 g were assigned to groups of 6-10 individuals, and the bronchoconstriction due to LTD4 was measured according to the method of Konzett-Rossler, [Konzett, H. and Rössler, R.: Naunyn-Schmidebergs Archiv für Experimentelle Pathologie und Pharmakologie, 195, 71-74 (1940).] Each guinea pig was fixed in a supine position under urethane anesthesis (1.5 g/kg, intraperitoneal) and the trachea was incised and connected to an artificial respiration apparatus, Rodent Respirator Model 680 [Harvard Apparatus Company, U.S.A.] via a cannula. The branch tube of this tracheal cannula was connected to a Bronchospasm Transducer Model 7020 [Ugobasil Biological Research Apparatus, Italy]. Under the conditions of 4 to 7 ml of air per stroke, 70 strokes per minute and a lung loading pressure of 10 cmH20, the volume of overflowing air was recorded on Rectigraph-8S (San-eiSokki Ltd., Japan) via a transducer. After administration of gallamine triethiodide (1'mg/kg, i.v.), a solution of LTD4 in physiological saline (10 µg/kg) was intravenously administered and the bronchoconstriction elicited thereby was recorded for 15 minutes. The compound was used as suspended in a 5% solution of gum arabic or dissolved in water, and administered orally in a volume of 0.2 ml per 100 c body weight one hour before LTD4 loading. […]

| Structure (SMILES) | Autopsy after 7 days ([1]; 2000 mg/kg) | symptoms attributable to the compound (acute toxicity) ([1]; 2000 mg/kg) | ED50 [2] | Autopsy after 7 days ([1]; 500 mg/kg) | symptoms attributable to the compound (acute toxicity) ([1]; 500 mg/kg) |
| --- | --- | --- | --- | --- | --- |
| CCCc1c(OCCCOc2ccc(C(=O)OCCN3CCOCC3)cc2Br)ccc(C(C)=O)c1O [C, 2-morpholinoethyl 4-[3-(4-acetyl-3-hydroxy-2-propylphenoxy)propoxy]-3-bromobenzoate] | did not reveal any abnormalities | no symptoms |  |  |  |
| CCCc1c(OCCCOc2ccc(C(=O)O)cc2Br)ccc(C(C)=O)c1OC(C)=O [Compound A, 4-[3-(3-acetoxy-4-acetyl-2-propylphenoxy)propoxy]-3-bromobenzoic acid] |  |  | 47 µmol/kg | did not reveal any abnormalities | no symptoms |
| CCCc1c(OCCCOc2ccc(C(=O)OCCCN(C)C)cc2Br)ccc(C(C)=O)c1O [E, 3-dimethylaminopropyl 4-[3-(4-acetyl-3-hydroxy-2-propylphenoxy)propoxy]-3-bromobenzoate] | did not reveal any abnormalities | no symptoms |  |  |  |
